Assay [1] addresses T1, hDGKalpha(1-735)-N-His (DGKA) (Homo sapiens, UniProt P23743).
T1 construct: hDGKalpha(1-735)-N-His; His (N)
Description: In vitro DGK inhibition assay (ADP-Glo, in house), DGK alpha. The note with it: isomer A; 4 nM DGK α, 25 μM ATP, 125 μM DLG in liposomes, 1 hour reaction; read-out: DGKalpha ADP Glo assay IC50. The format is biochemical. In outline: (§1)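 Sf21-expressed full-length His-tagged enzymes (DGKA 4 nM, DGKZ 2 nM) phosphorylated 125 μM DLG in PS/PC liposomes with ATP at 25 μM (DGKA) or 50 μM (DGKZ). After 1 h, ADP was measured by ADP-Glo luminescence. Compounds: 11-point 1:3 dilutions from 10 mM top concentration.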
On the technique in general: In ADP-Glo the light output rises with the ADP produced.

For a further assay, the system named is primary human T-cells. The experiment in a line: IL2 secretion measurements in CD3-stimulated T-cells. Particulars: isomer A; for EC50: CD3 antibody-stimulated T-cells, IL2 in supernatant after 24 hours, read-out: Tcell IL2 CD3 EC50; for Emax: read-out: Emax IL2 (% activation). The format is cell-based. How it is done: As readouts for T-cell activation, IL2 secretion after 24 hours and proliferation after 5 days was measured. Increases in IL2 secretion and proliferation upon compound treatment were assessed as the % of the maximum of reference compound A1. WO 2016/139181 discloses reference compound A1 as example 70. As a counter screen and to make sure that no unwanted TCR-independent activation was triggered, PBS conditions were run for all compounds.
Expanded primary human T-cells were thawed and cultured in RPMI 1640 (Gibco, #61870-010)+5% human serum (HS, Sigma, #H3667)+1 mM Sodium Pyruvate (Gibco, #11360-039)+50 μM 2-mercaptoethanol (Gibco, #31350-010) and lx Pen-Strep (Life Technologies, #15140122) medium at density of 2 Mio/ml for 3 hours in 5% CO2, 37° C. and 95% humidity. For coating of plates, […] or PBS++ with CD3 antibody (concentration depending on donor and determined by CD3 titrations) was added 100 μl/well to Poly-D Lysine coated 96-well plates. Plates were sealed and incubated at room temperature for 3 hours on a table-top rocking platform. After incubation, plates were washed once with PBS−− and filled with 40 μl/well culture medium only. Compounds were then added (see next section) to medium only plates. After 3 hours of culturing the T-cells, cells were filtered through a cell strainer (Miltenyi Biotech, #130-041-407), counted again and concentration was adjusted to 1.25 Mio/ml.
Cells were then seeded 80 μl/well to the 40 μl/well including dispensed compounds according to plate layout. By adding cells, compounds were further diluted 1:3, and resulting in 100k cells/120 μl/well. After 24 hours 40 μl of supernatant was collected carefully from the top while not disturbing the cells and transferred into a round bottom 96 well plate. Collected and frozen supernatant was used for detection of IL2 using the IL-2 Human ProQuantum Immunoassay Kit (Invitrogen) or using the Human IL-2 ELISA Kit (Thermo Fisher).
Compounds were added in a 5 or 6 pt dose response with the Tecan D300e Digital Dispenser, all conditions 3 times more concentrated than the end-concentration, since cells are added afterwards (80 μl cells to 40 μl prepared medium with treatment). The DR was starting at 20 μM or 10 μM final top concentration and a dilution factor of 3.333. The positive control was the reference compound A1 that was added in a dose response as well, additionally to 3 wells of only 20 μM representing the positive stimulator control. All wells were normalized with DMSO to a final concentration of 0.6% (0.2% end-concentration).
The immunoassay is done following the manufacturer's manual (Invitrogen, #A35603).
Additional information: For the immunoassay, MicroAmp™ EnduraPlate™ Optical 384-Well plates are used. Frozen supernatant is thawed and centrifuged for 5 minutes at 1000×g, both steps at 4° C. After centrifugation, required sample amount is taken from the top, and in a separate LightCycler V-bottom plate (working plate) diluted with assay dilution buffer, dilution factor depending on the PBS or CD3 condition but at least 1:3. IL-2 standard and blanks are prepared in the same V-bottom plate, standard with a range of […] (extended version). After preparation, […] of sample dilutions or standard/blanks are transferred to the optical 384-well plate (assay plate) and the 10 μl reaction protocol is being followed. For measurement, the QuantStudio 12K Flex system is used. Raw data is extracted and IL-2 concentrations are calculated with the Thermo Fisher online app (apps.thermofisher.com/apps/proquantum).
ELISA is done following the manufacturer's manual (Thermo Fisher Scientific, #88-7025-88).
Additional information: For the ELISA Nunc MaxiSorp 96 well plates are used. Frozen supernatant is thawed and centrifuged for 5 minutes at 1000×g, both steps at 4° C. After that, required sample amount is taken from the top, and in a separate V-bottom plate diluted with ELISA diluent, dilution factor depending on the PBS or CD3 condition. […]

For assay [2], the target named is T2, hDGKzeta(1-928)-N-His (DGKZ) (Homo sapiens, UniProt Q13574).
T2 construct: hDGKzeta(1-928)-N-His; His (N)
T2 sequence (Q13574 whole entry): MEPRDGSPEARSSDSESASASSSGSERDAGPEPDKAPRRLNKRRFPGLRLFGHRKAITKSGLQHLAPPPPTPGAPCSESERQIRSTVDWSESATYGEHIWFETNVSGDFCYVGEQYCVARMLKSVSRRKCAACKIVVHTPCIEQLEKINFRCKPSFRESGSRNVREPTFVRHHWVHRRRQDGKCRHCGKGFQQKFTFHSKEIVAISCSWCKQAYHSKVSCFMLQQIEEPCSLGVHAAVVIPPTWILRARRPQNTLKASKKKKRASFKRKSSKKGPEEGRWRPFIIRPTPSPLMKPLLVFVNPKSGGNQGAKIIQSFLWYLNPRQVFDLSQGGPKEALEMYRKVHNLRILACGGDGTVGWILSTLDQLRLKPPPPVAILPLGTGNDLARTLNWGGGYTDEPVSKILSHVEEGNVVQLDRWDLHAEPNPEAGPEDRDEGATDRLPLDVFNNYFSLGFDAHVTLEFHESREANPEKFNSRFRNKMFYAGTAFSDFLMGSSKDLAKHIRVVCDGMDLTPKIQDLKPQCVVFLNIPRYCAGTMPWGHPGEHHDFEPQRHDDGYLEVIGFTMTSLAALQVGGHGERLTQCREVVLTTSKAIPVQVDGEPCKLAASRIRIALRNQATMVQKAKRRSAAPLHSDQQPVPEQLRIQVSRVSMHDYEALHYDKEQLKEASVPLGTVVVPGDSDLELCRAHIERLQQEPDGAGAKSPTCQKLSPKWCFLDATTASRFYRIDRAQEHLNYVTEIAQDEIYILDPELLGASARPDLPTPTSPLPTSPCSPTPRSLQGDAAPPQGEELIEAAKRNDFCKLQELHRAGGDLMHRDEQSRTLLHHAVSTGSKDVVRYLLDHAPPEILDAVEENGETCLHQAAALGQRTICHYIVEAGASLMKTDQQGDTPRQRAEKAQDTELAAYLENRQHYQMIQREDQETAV
Description: In vitro DGK inhibition assay (ADP-Glo, in house), DGK zeta. The class given is biochemical. The note with it: isomer A; 2 nM DGK ζ, 50 μM ATP, 125 μM DLG in liposomes, 1 hour reaction; read-out: DGKzeta ADP Glo assay IC50. In outline:
as §1

Where [3] appears, read: Homo sapiens, T-cell, CD3 condition, 24 hours, 20 μM reference compound A1 = 100%, DMSO neutral control.

Like-named read-outs stand apart in the source and are kept apart here.

T1 sequence (P23743 whole entry): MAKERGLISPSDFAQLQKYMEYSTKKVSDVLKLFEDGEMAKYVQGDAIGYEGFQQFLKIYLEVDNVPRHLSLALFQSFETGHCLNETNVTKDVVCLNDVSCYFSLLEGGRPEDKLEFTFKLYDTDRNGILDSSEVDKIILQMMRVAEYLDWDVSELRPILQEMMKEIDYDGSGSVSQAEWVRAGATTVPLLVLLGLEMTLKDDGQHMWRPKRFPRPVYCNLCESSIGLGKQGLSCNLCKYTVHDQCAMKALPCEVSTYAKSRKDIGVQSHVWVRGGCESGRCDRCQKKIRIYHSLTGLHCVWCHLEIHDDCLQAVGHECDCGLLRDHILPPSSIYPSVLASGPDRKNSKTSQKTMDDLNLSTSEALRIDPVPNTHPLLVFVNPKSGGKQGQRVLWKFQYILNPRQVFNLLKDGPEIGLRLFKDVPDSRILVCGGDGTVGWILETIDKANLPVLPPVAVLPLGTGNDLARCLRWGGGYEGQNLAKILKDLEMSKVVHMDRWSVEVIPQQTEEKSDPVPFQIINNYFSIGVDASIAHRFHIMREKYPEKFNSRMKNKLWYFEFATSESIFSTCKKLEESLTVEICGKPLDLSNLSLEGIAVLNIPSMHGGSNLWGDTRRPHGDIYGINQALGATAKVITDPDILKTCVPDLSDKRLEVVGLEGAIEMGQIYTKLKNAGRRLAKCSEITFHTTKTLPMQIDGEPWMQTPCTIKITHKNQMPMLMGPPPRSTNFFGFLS

Broadly, the IC50 is the midpoint of a concentration-inhibition curve. For orientation: EC50 means the midpoint of the concentration-response curve. One may read the Emax as the maximal effect, on the per cent scale that the assay sets. Consider `COC(=O)N1CC2CC(c3nnc(-c4cc5c(cc4F)C(F)(F)C[C@@H](N)C(=O)N5Cc4ccc(Cl)cc4)o3)(C2)C1` (single isomer, unassigned) [Example 36], for which the values for the IC50 in assay [1] and in assay [2] were 55.2 µM and 5.92 µM, respectively. In addition, the concentration giving a half-maximal response (EC50) in the assay on primary human T-cells (Homo sapiens, T-cell) was found to be 0.856 µM. Also, the maximal response (Emax) in the assay with primary human T-cells (setting [3]) is 53%.

`CC(F)(F)c1ccc(-c2ccc(CN3C(=O)[C@H](N)CC(F)(F)c4cc(F)c(-c5nnc(C(C)(C)C#N)o5)cc43)cc2)nc1` (single isomer, unassigned) [Example 37]: the half-inhibitory concentration (IC50) in assay [1] amounted to 11.2 µM; in assay [2], 2.85 µM. Also, the EC50 in the assay with primary human T-cells (Homo sapiens, T-cell) stood at 0.457 µM. Moreover, the maximal response (Emax) in the assay with primary human T-cells (setting [3]) was 136%.

Regarding `COc1ccc(-c2ccc(CN3C(=O)[C@H](N)CC(F)(F)c4cc(F)c(-c5nnc(C(C)(C)C#N)o5)cc43)cc2)nc1` (single isomer, unassigned) [Example 38], the values for the half-inhibitory concentration (IC50) in assay [1] and in assay [2] were not below 60 µM and 5.8 µM, respectively. Besides, the EC50 in the assay with primary human T-cells (Homo sapiens, T-cell) was determined as 2.08 µM. The maximal response (Emax) in the assay on primary human T-cells (setting [3]) was 105%.

Take `COc1ccc(-c2ccc(CN3C(=O)[C@H](N)CC(F)(F)c4cc(F)c(-c5nnc(C(C)(C)S(C)(=O)=O)o5)cc43)cc2)nc1` (single isomer, unassigned) [Example 39]: the results for the half-maximal inhibitory concentration (IC50) in assay [1] and in assay [2] were 44.4 µM and 38.8 µM, respectively. Also, the EC50 in the assay with primary human T-cells (Homo sapiens, T-cell) was more than 10 µM. The maximum response (Emax) in the assay with primary human T-cells (setting [3]) is 35%.

Regarding `CC(C)(C#N)c1nnc(-c2cc3c(cc2F)C(F)(F)C[C@@H](N)C(=O)N3Cc2ccc(-c3ccc(C(F)F)cn3)cc2)o1` (single isomer, unassigned) [Example 40], the half-inhibitory concentration (IC50) came to 15.3 µM in assay [1] and 2.5 µM in assay [2]. Besides, the EC50 with primary human T-cells (Homo sapiens, T-cell) is more than 10 µM. In addition, the maximum response (Emax) with primary human T-cells (setting [3]) was found to be 27%.

Take `CC(C)(C#N)c1nnc(-c2cc3c(cc2F)C(F)(F)C[C@@H](N)C(=O)N3Cc2ccc(-c3ccc(OC(F)F)cn3)cc2)o1` (single isomer, unassigned) [Example 41]: the figures for the IC50 in assay [1] and in assay [2] were 24 µM and 8.22 µM, respectively. Also, the EC50 in the assay on primary human T-cells (Homo sapiens, T-cell) is 0.884 µM. Moreover, the maximal effect (Emax) in the assay with primary human T-cells (setting [3]) was determined as 131%.

With `COC(=O)N1CC2CC(c3nnc(-c4cc5c(cc4F)C(F)(F)CC(N)C(=O)N5Cc4ccc(-c5noc(C(F)(F)F)n5)cc4)o3)(C2)C1` (single isomer, unassigned) [Example 42], the figures for the IC50 in assay [1] and in assay [2] were 4.32 µM and 2.22 µM, respectively. In the assay with primary human T-cells (Homo sapiens, T-cell), the concentration for a half-maximal effect (EC50) amounted to 2.89 µM. For the same compound, the Emax in the assay with primary human T-cells (setting [3]) amounted to 129%.

In the case of `CC(C)(C)c1nnc(-c2cc3c(cc2F)C(F)(F)CC(N)C(=O)N3Cc2ccc(OC(F)(F)F)cc2)o1` (stereo not drawn) [Example 1, 3-amino-8-(5-tert-butyl-1,3,4-oxadiazol-2-yl)-5,5,7-trifluoro-1-[[4-(trifluoromethoxy)phenyl]methyl]-3,4-dihydro-1-benzazepin-2-one], the 50% inhibitory concentration (IC50) in assay [1] is 33.9 µM; in assay [2], 19.9 µM. For the same compound, the EC50 with primary human T-cells (Homo sapiens, T-cell) amounted to 1.05 µM. Also, the Emax in the assay with primary human T-cells (setting [3]) was found to be 96%.

Consider “(3S)-3-amino-5,5,7-trifluoro-8-(5-morpholino-1,3,4-oxadiazol-2-yl)-1-[[4-(trifluoromethoxy)phenyl]methyl]-3,4-dihydro-1-benzazepin-2-one and (3R)-3-amino-5,5,7-trifluoro-8-(5-morpholino-1,3,4-oxadiazol-2-yl)-1-[[4-(trifluoromethoxy)phenyl]methyl]-3,4-dihydro-1-benzazepin-2-one [Example 3]”, for which the concentration for half-maximal inhibition (IC50) amounted to 1.57 µM in assay [1] and 2.89 µM in assay [2]. The EC50 in the assay on primary human T-cells was more than 10 µM. The “Emax IL2 (% activation)” value in the assay with primary human T-cells (CD3 condition, 24 hours, 20 μM reference compound A1 = 100%, DMSO neutral control) worked out at 37 % activation.

Values taken from US20250236614A1, “BICYCLIC TETRAHYDROAZEPINE DERIVATIVES” (Hoffmann-La Roche Inc., priority 2022, published 2025).
